In ChEMBL document CHEMBL5236577, “Targeting Aggrecanases for Osteoarthritis Therapy: From Zinc Chelation to Exosite Inhibition” (J Med Chem, 2022) one finds IC50 data, which are given here for one compound.

The target of assay [1] is T1, A disintegrin and metalloproteinase with thrombospondin motifs 4 (Homo sapiens, UniProt O75173).
T1 sequence (O75173 whole entry): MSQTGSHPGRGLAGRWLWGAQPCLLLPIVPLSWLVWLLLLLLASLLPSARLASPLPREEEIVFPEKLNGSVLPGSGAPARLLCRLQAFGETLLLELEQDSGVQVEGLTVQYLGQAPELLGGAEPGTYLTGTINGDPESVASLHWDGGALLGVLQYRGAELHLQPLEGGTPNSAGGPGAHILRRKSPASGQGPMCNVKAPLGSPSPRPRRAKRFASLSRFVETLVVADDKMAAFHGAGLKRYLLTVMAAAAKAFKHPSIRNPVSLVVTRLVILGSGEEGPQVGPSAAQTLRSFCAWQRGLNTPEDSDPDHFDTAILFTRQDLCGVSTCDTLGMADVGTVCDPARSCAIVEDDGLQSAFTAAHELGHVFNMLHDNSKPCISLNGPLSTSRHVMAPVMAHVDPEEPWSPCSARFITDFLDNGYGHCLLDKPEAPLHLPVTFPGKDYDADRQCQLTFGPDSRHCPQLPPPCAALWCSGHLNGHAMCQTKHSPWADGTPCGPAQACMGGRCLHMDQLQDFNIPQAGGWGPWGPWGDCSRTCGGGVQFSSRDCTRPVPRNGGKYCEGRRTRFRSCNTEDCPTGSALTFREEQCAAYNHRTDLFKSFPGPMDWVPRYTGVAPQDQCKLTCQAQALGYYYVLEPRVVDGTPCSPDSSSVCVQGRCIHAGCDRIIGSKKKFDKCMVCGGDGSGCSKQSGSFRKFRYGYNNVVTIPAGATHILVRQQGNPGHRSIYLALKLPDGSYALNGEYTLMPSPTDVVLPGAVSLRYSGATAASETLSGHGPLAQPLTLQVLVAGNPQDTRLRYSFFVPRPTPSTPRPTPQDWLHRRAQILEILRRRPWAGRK
Nature of the assay: Inhibition of recombinant human ADAMTS-4.

Assay [2] concerns the target T2, A disintegrin and metalloproteinase with thrombospondin motifs 5 (Homo sapiens, UniProt Q9UNA0).
T2 sequence (Q9UNA0 whole entry): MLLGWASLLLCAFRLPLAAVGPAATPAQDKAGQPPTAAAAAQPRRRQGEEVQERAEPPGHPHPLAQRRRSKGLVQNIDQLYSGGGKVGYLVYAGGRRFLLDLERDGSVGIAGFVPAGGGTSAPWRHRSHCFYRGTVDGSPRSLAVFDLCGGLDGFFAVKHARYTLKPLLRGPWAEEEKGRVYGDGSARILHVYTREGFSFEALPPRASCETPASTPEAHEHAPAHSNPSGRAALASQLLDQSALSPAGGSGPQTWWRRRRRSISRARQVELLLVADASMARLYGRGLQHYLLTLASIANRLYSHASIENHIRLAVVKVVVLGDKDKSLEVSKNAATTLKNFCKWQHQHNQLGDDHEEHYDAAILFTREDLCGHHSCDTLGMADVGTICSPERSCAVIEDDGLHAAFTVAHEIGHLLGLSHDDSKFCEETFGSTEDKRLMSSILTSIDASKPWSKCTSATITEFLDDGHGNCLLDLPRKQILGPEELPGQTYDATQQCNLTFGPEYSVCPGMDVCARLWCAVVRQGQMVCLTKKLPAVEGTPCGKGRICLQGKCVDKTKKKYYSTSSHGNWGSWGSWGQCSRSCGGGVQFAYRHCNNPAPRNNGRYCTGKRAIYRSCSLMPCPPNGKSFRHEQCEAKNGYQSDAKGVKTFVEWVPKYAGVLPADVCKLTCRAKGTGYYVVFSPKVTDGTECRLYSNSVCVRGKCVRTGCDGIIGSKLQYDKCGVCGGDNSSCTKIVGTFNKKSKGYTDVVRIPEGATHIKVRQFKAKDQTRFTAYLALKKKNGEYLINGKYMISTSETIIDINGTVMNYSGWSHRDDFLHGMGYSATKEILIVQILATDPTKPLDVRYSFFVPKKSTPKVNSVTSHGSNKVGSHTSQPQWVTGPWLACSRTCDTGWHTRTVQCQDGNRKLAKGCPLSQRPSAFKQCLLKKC
Nature of the assay: Inhibition of recombinant human ADAMTS-5.

Assay [3] has as its target Collagenase 3 (Homo sapiens, UniProt P45452). Nature of the assay: Inhibition of recombinant human MMP13.
In assay [4] the target is 72 kDa type IV collagenase (Homo sapiens, UniProt P08253). The experiment in a line: Inhibition of recombinant human MMP2.
The target in assay [5] is T3, Matrilysin (Homo sapiens, UniProt P09237).
T3 sequence (P09237 whole entry): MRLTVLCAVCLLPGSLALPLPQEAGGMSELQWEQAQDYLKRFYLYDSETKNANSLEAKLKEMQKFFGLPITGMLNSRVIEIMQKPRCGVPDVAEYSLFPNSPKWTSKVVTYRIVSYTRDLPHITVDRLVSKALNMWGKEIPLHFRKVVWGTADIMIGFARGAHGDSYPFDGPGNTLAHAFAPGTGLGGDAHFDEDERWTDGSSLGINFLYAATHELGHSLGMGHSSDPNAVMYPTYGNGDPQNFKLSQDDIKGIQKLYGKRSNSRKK
Nature of the assay: Inhibition of recombinant human MMP7.

Sequence of 72 kDa type IV collagenase (P08253 whole entry): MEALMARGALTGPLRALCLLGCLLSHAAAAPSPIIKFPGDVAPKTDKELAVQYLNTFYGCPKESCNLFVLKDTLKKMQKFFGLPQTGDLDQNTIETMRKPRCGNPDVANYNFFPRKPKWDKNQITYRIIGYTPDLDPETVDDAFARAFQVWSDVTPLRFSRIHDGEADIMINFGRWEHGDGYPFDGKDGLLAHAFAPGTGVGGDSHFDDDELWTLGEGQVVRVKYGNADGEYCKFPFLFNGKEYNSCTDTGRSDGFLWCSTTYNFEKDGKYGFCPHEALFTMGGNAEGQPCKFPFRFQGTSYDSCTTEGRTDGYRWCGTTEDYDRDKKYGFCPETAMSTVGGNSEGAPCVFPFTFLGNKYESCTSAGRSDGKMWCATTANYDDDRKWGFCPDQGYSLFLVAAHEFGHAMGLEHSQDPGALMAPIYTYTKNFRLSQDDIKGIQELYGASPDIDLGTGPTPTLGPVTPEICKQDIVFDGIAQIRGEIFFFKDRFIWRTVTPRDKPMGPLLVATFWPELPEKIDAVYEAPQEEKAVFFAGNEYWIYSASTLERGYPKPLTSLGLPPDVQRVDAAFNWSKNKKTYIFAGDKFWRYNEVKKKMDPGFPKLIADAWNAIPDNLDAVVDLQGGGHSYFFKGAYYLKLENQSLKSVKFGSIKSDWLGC

Take `O=c1cc(-c2ccc(O)c(O)c2)oc2cc(O)cc(O)c12` [LUTEOLIN]: the IC50 was 9.8 µM in assay [1]; 12.2 µM in assay [2]; 18.3 µM in assay [3]; 40.9 µM in assay [4]; 68.2 µM in assay [5].

By IC50 is commonly meant the concentration needed to halve the response being measured.
